According to patent US5622725A, “Wound disinfection and repair” (Alcide Corporation, priority 1996, dated 1997):

Experiments:
[1] = system: polymorphonuclear leukocytes; test: Chemotaxis, cell integrity (lactate dehydrogenase) and morphology of isolated polymorphonuclear leukocytes; type: cell-based; details: in vitro, ClO2 solution 3 to 300 ppm
From the text: To test whether methods of the invention can control the inflammatory response, isolated polymorphonuclear leukocytes, which are among the first cells to be found at a wound or a site of potential infection, are studied with respect to their response to chlorine dioxide solutions and compared with a control containing ibuprofen, a known non-steroid anti-inflammatorycompound. The choice of in vitro assay is chemotaxis.
Isolated polymorphonuclear leukocytes are studied with respect to their response to a ClO2 solution varying in concentration from 3 to 300 ppm and an ibuprofen control. Cellular response and integrity (chemotaxis)is assayed in vitro after incubating with both compounds by measuring lactate dehydrogenase activity and/or release concurrently with observing morphology using scanning electron microscopy and/or transmission electron microscopy.
The results are graphically illustrated in FIGS. 1 to 3. The x-axis in the figures show dilutions of a 0.5 mg/ml ibuprofen solution, and chlorine dioxide solutions prepared by combining lactic acid with sodium chlorite and diluting to yield chlorine dioxide concentrations as follows: […], 1:10 is 60 ppm ClO2, 1:20 is 30 ppm ClO2, 1:50 is 12 ppm ClO2, 1:100 is 6 ppm ClO2, 1:150 is 4 ppm ClO2, and 1:200 is 3 ppm ClO2.
A negative control is denoted by .smallcircle.. […]

[2] = system: S. epidermidis biofilms; test: Sterilization of S. epidermidis biofilms by diluted 50 ppm ClO2 or formol saline; type: cell-based, Staphylococcus epidermidis; details: for minimal time of exposure to effect sterilization: 22° C.
Procedure: Antibiotic activity against S. epidermidis biofilms are determined using a supravital dye which acts as an electron acceptor in coupled oxidative systems in biofilm bacteria. The method allows the bacteria to be examined undisturbed within the biofilm matrix in situ. Briefly stated, the biofilms are exposed to antibiotic solutions and incubated at […] for varying periods of time. Positive (viable, 1% peptone water) and negative (sterilized, 4% formol-peptone) controls are included in all experiments. After a designated exposure at 22° C. for varying periods of time between 15 seconds to 6 hours, the biofilms are rinsed twice in sterile water and allowed to drain. They are then placed in a flat agar medium incorporating substantive dyes and incubated at 37° C. for 4 hours, then 24 hours. Viability is assessed visually by a change in dye color and confirmed after 24 hours by mechanically scraping and subsequently culturing the biofilms. Sterilization is indicated by the absence of color changes and confirmed by culture of both intact and mechanically fragmented biofilms. Inhibition of growth is indicated by a lack of color change after a 4-hour incubation and confirmed by a positive color change by 24 hours.
This conclusion is underscored in studies that assess the efficacy of methods employed using compositions of the invention in combination with an infusate used in C A P D and C C P D practice, Inpersol® Abbott Laboratories, Montreal, Canada, which contains 4.25% dextrose and has a pH of 5.2. A 50 ppm ClO2 solution is diluted from 1:2 to 1:10 with normal saline (denoted below as NS), Inpersol® peritoneal dialyzate (denoted as PD), and peptone-saline (a standardized protein digest obtained from Oxoid, denoted as PS). Four percent formol saline, a known potent environmental disinfectant of considerable toxicity, is used as a reference. The results are expressed as the minimal time of exposure at 22° C. to effect sterilization of S. epidermidis biofilms: […]

[3] = system: lactobacilli, streptococci, coliforms, Klebsiella species, Enterobacter species, Bacteroides species, clostridia and eubacteria; test: Broad-spectrum antimicrobial activity; type: cell-based; details: aerobic and anaerobic
From the text: In one embodiment, the present invention is directed to the use of effective amounts of chlorine dioxide as a peritoneal cavity irrigant. The enteric organisms which enter the peritoneal cavity through contamination by gastrointestinal contact, whether by physical trauma or during surgery, are all susceptible to the cidal effects of chlorine dioxide, which is a broad-spectrum antimicrobial. […] However, as mentioned in the Introduction, addition of antibiotics to the irrigating solution has not provided any additional benefit (Hau and Nishikawa, cited above), and it is presumed that the peritoneal irrigation derives from its mechanical effect. The ineffectivenss of local antibiotic solutions has been surprising to researchers, since the antibiotics that have been used were capable of in vitro inhibition of the bacterial species present in the peritoneal cavity. It may be that the lack of effect was attributable to the brevity of contact of the antibiotic with the organisms, since usual flush times approximate five minutes or less in duration, which would be too short for significant cidal action to occur.

[4] = system: peritoneal cavity; details: infused into the peritoneal cavity and other body cavities; per Ser. No. 08/133,465 and U.S. Pat. No. 5,252,343; cited from earlier work
[5] = system: cows' udders; test: Infusion into cows' udders, immune response; type: in vivo, cow; details: 350 ppm in buffered saline
From the text: It is an advantage of the invention that solutions containing fairly significant levels of ClO2 are particularly well tolerated by tissues. […] ClO2 is capable of being reduced to lower oxidation states, such as chlorite and chloride, upon contact with organic materials, but is less reactive than, for example, hypochlorite, and a volume of ClO2 -containing saline is expected to retain significant antimicrobial activity when used to flush out organic debris from an incised area. Appropriate use levels of ClO2 will vary, depending on the amount of organic detritus in the site, but generally concentrations of about 5 to 250 ppm in approximately isotonic solution can be used with good effect.

Q: With `[O][Cl+][O-]` [ClO2, chlorine dioxide] as the compound, how does the “effect on chemotaxis / quality and morphology of polymorphonuclear leukocytes” value [1] read?
A: control chemotaxis by affecting the quality and morphology of the associated polymorphonuclear leukocytes

Q: What about the “effect on chemotaxis / quality and morphology of polymorphonuclear leukocytes” value ([1]; listed as ClO2 solution) of the same compound?
A: affected both the quality and morphology of polymorphonuclear leukocytes

Q: What about the “minimal time of exposure to effect sterilization” value (“minimal time of exposure” for short) ([2]; dilution 1/2 in normal saline (NS)) of the same compound?
A: 0.25 min

Q: What about the “minimal time of exposure” value ([2]; dilution 1/2 in peptone-saline (PS)) of the same compound?
A: 1 min

Q: And the “minimal time of exposure” value ([2]; dilution 1/2 in peritoneal dialyzate (PD))?
A: 0.083 min

Q: What about the “minimal time of exposure” value ([2]; dilution 1/3 in normal saline (NS)) of the same compound?
A: 0.5 min

Q: And the “minimal time of exposure” value ([2]; dilution 1/3 in peptone-saline (PS))?
A: 3 min

Q: And the “minimal time of exposure” value ([2]; dilution 1/3 in peritoneal dialyzate (PD))?
A: 1 min

Q: What about the “minimal time of exposure” value ([2]; dilution 1/5 in normal saline (NS)) of the same compound?
A: 5 min

Q: What about the “minimal time of exposure” value ([2]; dilution 1/5 in peptone-saline (PS)) of the same compound?
A: 60 min

Q: What about the “minimal time of exposure” value ([2]; dilution 1/5 in peritoneal dialyzate (PD)) of the same compound?
A: 5 min

Q: What about the “minimal time of exposure” value ([2]; dilution 1/7 in normal saline (NS)) of the same compound?
A: 15 min

Q: What about the “minimal time of exposure” value ([2]; dilution 1/7 in peptone-saline (PS)) of the same compound?
A: 240 min

Q: What about the “minimal time of exposure” value ([2]; dilution 1/7 in peritoneal dialyzate (PD)) of the same compound?
A: 7 min

Q: What about the “minimal time of exposure” value ([2]; dilution 1/10 in normal saline (NS)) of the same compound?
A: 60 min

Q: What about the “minimal time of exposure” value ([2]; dilution 1/10 in peptone-saline (PS)) of the same compound?
A: 1440 min

Q: And the “minimal time of exposure” value ([2]; dilution 1/10 in peritoneal dialyzate (PD))?
A: 10 min

Q: And the “effect of diluting with peptone solutions on sterilizing activity” value ([2]; diluted with peptone solutions)?
A: inhibitory effect on the sterilizing activity

Q: And the “effect of peritoneal dialysis solution on antimicrobial activity” value ([2]; diluted with peritoneal dialysis solution)?
A: markedly enhances antimicrobial activity

Q: What about the “demonstrated activity against organisms” value [3] of the same compound?
A: demonstrated activity against all relevant organisms, both aerobic and anaerobic

Q: What about the “inflammatory response on infusion” value [4] of the same compound?
A: without evoking the inflammatory response

Q: And the “safety of infusion / immune response” value [5]?
A: safely infusable into cows' udders without stimulation of any immune response
